Among the test systems are 786-0; A549; CCRF-CEM; HCT-15; HL-60; HOP-92; IGROV-1; K562; KM12; NCI-H23; RXF 393; SF-295; SF-539; SR; OVCAR-5; UACC-62; MCF7; SNB-75; MDA-MB-435.
Common to all, as to assay: NCI tumour cell line growth inhibition, 48 h

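96-well plates; 48 h exposure; 5 concentrations. Endpoints by linear interpolation between flanking doses. Not reached: highest tested concentration assigned. The concentration for 50% growth inhibition is given as GI50.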 The source made the active and inactive calls. Rule as the data show it: active = GI50 up to about 1.1 µM and inactive = higher.

Turning to `CC1=C(Oc2ccccc2)C(CCC(=O)O)c2c(O)cc(Cl)c(O)c21` (stereo unspecified), the GI50 in the assay on 786-0 is > 100 µM (inactive); with A549, > 100 µM (inactive); with CCRF-CEM it was > 100 µM (inactive); in the assay on HCT-15, above 100 µM; in the assay on HL-60, > 100 µM (inactive); in the assay with HOP-92, > 100 µM (inactive). Moreover, the GI50 with IGROV-1, with K562, in the assay with KM12, in the assay on NCI-H23, in the assay with RXF 393 and in the assay on SF-295 was > 100 µM (inactive) each time. In addition, the GI50 in the assay on SF-539 and in the assay with SR was > 100 µM (inactive) throughout.
Take `CCCc1onc(CCC(=O)N(Cc2ccccc2)Cc2ccccc2)c1CC`: the GI50 was > 100 µM (inactive) in the assay with 786-0; > 100 µM (inactive) with CCRF-CEM; above 100 µM in the assay on HCT-15; > 100 µM (inactive) with HL-60; 48.8 µM (inactive) in the assay with HOP-92; > 100 µM (inactive) in the assay on IGROV-1. The GI50 in the assay with K562, in the assay with KM12, in the assay on NCI-H23, in the assay on OVCAR-5, with SF-295 and in the assay on UACC-62 was > 100 µM (inactive) each time.
Turning to `C=C1CCCC(C)(C)[C@@H]1CC/C(C)=C/Cn1c2cccc(=O)c-2nc2ccccc21`, the GI50 with A549 is 1.72 µM (inactive); in the assay on CCRF-CEM it was 0.406 µM (active); in the assay on HCT-15, 1.18 µM; in the assay on HL-60, 0.127 µM (active); in the assay with HOP-92, 1.94 µM (inactive); in the assay on IGROV-1, 1.71 µM (inactive). For the same compound, the GI50 was 1.07 µM (active) in the assay with K562; 2.81 µM (inactive) in the assay on KM12; 2.55 µM (inactive) with MCF7; 1.52 µM (inactive) with NCI-H23; 3.25 µM (inactive) in the assay with OVCAR-5; 1.45 µM (inactive) in the assay on SF-295. Besides, the GI50 with SF-539 is 1.66 µM (inactive); in the assay with SNB-75, 1.41 µM (inactive); in the assay with UACC-62, 0.771 µM (active).
As to `Nc1ncnc2c1ncn2COC/C=C/I`, the GI50 in the assay with 786-0 was > 100 µM (inactive); in the assay on A549, > 100 µM (inactive); with CCRF-CEM, 85.3 µM (inactive); in the assay with HOP-92 it was > 100 µM (inactive); in the assay on IGROV-1 it was > 100 µM (inactive); in the assay with K562, > 100 µM (inactive). In addition, the GI50 with KM12, in the assay with NCI-H23, in the assay on OVCAR-5, in the assay on RXF 393, in the assay with SF-295 and with SF-539 was > 100 µM (inactive) throughout. For the same compound, the GI50 in the assay with SNB-75 was 36.7 µM (inactive); in the assay with SR it was > 100 µM (inactive); with UACC-62, > 100 µM (inactive).
For `Cc1cc(C)nc(NS(=O)(=O)c2ccc(Nc3c4ccccc4nc4c(C(=O)N5CCN(CCOS(C)(=O)=O)CC5)ccc(Cl)c34)cc2)n1`, the GI50 is 43.7 µM (inactive) in the assay on 786-0; > 100 µM (inactive) in the assay with A549; > 100 µM (inactive) with CCRF-CEM; above 100 µM in the assay with HCT-15; > 100 µM (inactive) with HL-60; > 100 µM (inactive) with HOP-92. Further, the GI50 with IGROV-1, in the assay with K562, with KM12, in the assay on NCI-H23, with OVCAR-5 and with RXF 393 was > 100 µM (inactive) throughout. Also, the GI50 with SF-295, with SF-539, in the assay on SNB-75, in the assay with SR and in the assay with UACC-62 was > 100 µM (inactive) in each case.
`CCN(CC)CCSc1nc2cccc([N+](=O)[O-])c2[nH]1`: the GI50 in the assay with A549 was > 100 µM (inactive); with CCRF-CEM it was > 100 µM (inactive); in the assay on HCT-15, above 100 µM; in the assay with HL-60 it was > 100 µM (inactive); in the assay on HOP-92 it was 33.4 µM (inactive); in the assay with IGROV-1, > 100 µM (inactive). The GI50 in the assay on K562, in the assay with KM12, in the assay with NCI-H23, with RXF 393, in the assay on SF-539 and in the assay on SNB-75 was > 100 µM (inactive) throughout. For the same compound, the GI50 with UACC-62 is > 100 µM (inactive).
As for `Cn1c(=O)nc2n(-c3ccc(F)cc3)c3ccccc3nc-2c1=O`, the GI50 in the assay on 786-0 was 28.2 µM (inactive); in the assay on A549, 18.3 µM (inactive); in the assay on CCRF-CEM, 26.6 µM (inactive); with HCT-15, 16.4 µM; with IGROV-1, 24 µM (inactive); with K562, 19.9 µM (inactive). The GI50 is 24.7 µM (inactive) in the assay with KM12; 20 µM (inactive) in the assay with NCI-H23; 24.3 µM (inactive) in the assay on OVCAR-5; 23.8 µM (inactive) with RXF 393; 18.7 µM (inactive) with SF-295; 21.3 µM (inactive) with SF-539. Besides, the GI50 in the assay on SNB-75 was 31 µM (inactive); in the assay on UACC-62, 12.2 µM (inactive).
Turning to `CCCNC1=Nc2ccccc2N(Cc2ccccc2)CC1`, the GI50 is 32.4 µM (inactive) in the assay with 786-0; 35.4 µM (inactive) in the assay on A549; 21 µM (inactive) in the assay with CCRF-CEM; 20.7 µM in the assay on HCT-15; 12.9 µM (inactive) in the assay on HL-60; 4.54 µM (inactive) with IGROV-1. In addition, the GI50 with K562 is 5.57 µM (inactive); in the assay on KM12 it was 22.5 µM (inactive); with MDA-MB-435 it was 19.1 µM (inactive); in the assay with NCI-H23 it was 16.5 µM (inactive); in the assay with OVCAR-5, 40.2 µM (inactive); in the assay with RXF 393, 11.6 µM (inactive). Further, the GI50 with SF-295 is 24.9 µM (inactive); in the assay with SNB-75 it was 5.62 µM (inactive); in the assay with UACC-62 it was 13.5 µM (inactive).
As for `O=c1[nH]nc(NNc2ccccc2)c2nnn(C3CCCCC3)c12`, the GI50 in the assay with A549 is > 100 µM (inactive); in the assay with CCRF-CEM, > 100 µM (inactive); in the assay with HCT-15, 96.2 µM; in the assay with HL-60, > 100 µM (inactive); with HOP-92, > 100 µM (inactive); in the assay on K562, > 100 µM (inactive). Moreover, the GI50 in the assay with KM12, in the assay on MCF7, in the assay on MDA-MB-435, with NCI-H23, in the assay with OVCAR-5 and in the assay on SF-295 was > 100 µM (inactive) each time. Further, the GI50 in the assay on SR is > 100 µM (inactive).
`Cc1cc(N(CCC#N)CCC#N)ccc1/C=C(\NC(=O)/C=C/c1ccccc1)NC(=O)Nc1ccccc1C`: the GI50 with 786-0 is 26.8 µM (inactive); with A549, > 100 µM (inactive); in the assay on CCRF-CEM, > 100 µM (inactive); with HCT-15 it was above 100 µM; with HL-60, > 100 µM (inactive); in the assay on HOP-92, 23.4 µM (inactive). Moreover, the GI50 in the assay on IGROV-1 was 68.4 µM (inactive); in the assay on K562, > 100 µM (inactive); with KM12, > 100 µM (inactive); in the assay on NCI-H23, 58.7 µM (inactive); with OVCAR-5, > 100 µM (inactive); in the assay on RXF 393 it was 17.2 µM (inactive). The GI50 in the assay on SF-295 is 25.4 µM (inactive); in the assay with SF-539 it was 38.1 µM (inactive); in the assay with UACC-62, 46.1 µM (inactive).
In the case of `O=C1C(Cl)N(c2c(Cl)cccc2Cl)C1c1c[nH]c2ccccc12` (stereo unspecified), the GI50 with A549, in the assay with CCRF-CEM, in the assay with HL-60, with HOP-92, in the assay on IGROV-1 and with K562 was > 100 µM (inactive) in each case. In addition, the GI50 with KM12, with NCI-H23, with OVCAR-5, in the assay on RXF 393, with SF-295 and in the assay with SF-539 was > 100 µM (inactive) throughout. The GI50 with SNB-75, in the assay on SR and in the assay with UACC-62 was > 100 µM (inactive) in each case.
Take `O=C(O)CCC(=O)N1c2ccccc2CC1c1c[nH]c2ccccc12` (stereo unspecified): the GI50 is > 100 µM (inactive) in the assay with 786-0; > 100 µM (inactive) with A549; > 100 µM (inactive) in the assay with CCRF-CEM; above 100 µM in the assay with HCT-15; > 100 µM (inactive) in the assay with HL-60; > 100 µM (inactive) in the assay on HOP-92. For the same compound, the GI50 in the assay with IGROV-1 was > 100 µM (inactive); in the assay on K562 it was > 100 µM (inactive); with KM12 it was 65.6 µM (inactive); with NCI-H23, > 100 µM (inactive); in the assay with OVCAR-5, > 100 µM (inactive); in the assay on RXF 393, > 100 µM (inactive). The GI50 with SF-295, in the assay with SF-539, in the assay with SNB-75 and with UACC-62 was > 100 µM (inactive) throughout.
Take `COc1cc(CCc2ccc(OCCN(C)C)cc2)cc(OC)c1OC`: the GI50 with 786-0 was > 100 µM (inactive); in the assay on A549, > 100 µM (inactive); in the assay with CCRF-CEM, > 100 µM (inactive); in the assay on HCT-15, above 100 µM; in the assay with HL-60 it was 33.7 µM (inactive); in the assay with HOP-92, 52.4 µM (inactive). Further, the GI50 in the assay on IGROV-1 is > 100 µM (inactive); with K562, 39.5 µM (inactive); with KM12 it was > 100 µM (inactive); in the assay with OVCAR-5, 33.8 µM (inactive); in the assay with RXF 393, 41.8 µM (inactive); in the assay on SF-295, > 100 µM (inactive). Moreover, the GI50 with SF-539 was > 100 µM (inactive); in the assay on SNB-75, 45.1 µM (inactive); in the assay with SR it was 49.8 µM (inactive); in the assay with UACC-62, > 100 µM (inactive).
As for `CCCCCCCCCCCC1CCCC(C)N1` (stereo unspecified), the GI50 with A549 was 88.7 µM (inactive); in the assay on CCRF-CEM, 23.3 µM (inactive); with HCT-15, 38.5 µM; in the assay on HL-60, 10.8 µM (inactive); with HOP-92 it was 17.7 µM (inactive); in the assay with IGROV-1, 61.2 µM (inactive). Also, the GI50 in the assay with K562 was 19.1 µM (inactive); in the assay with KM12 it was 30.9 µM (inactive); with MCF7, 50 µM (inactive); in the assay with NCI-H23, 61.9 µM (inactive); in the assay on OVCAR-5 it was 80 µM (inactive); in the assay on RXF 393, 35.8 µM (inactive). For the same compound, the GI50 in the assay with SF-295 is 77.8 µM (inactive); with SF-539 it was 69.8 µM (inactive); in the assay with SNB-75, 65.8 µM (inactive); in the assay on UACC-62 it was 36.7 µM (inactive).

The values above are taken from ChEMBL document CHEMBL1201862, “PubChem BioAssay data set” (2004).
